Read-outs that look alike come from different tables or passages of the source.
Experiments:
MOLP-8 = assay: In vitro cell viability assay (CellTiter-Glo, ATP levels), multiple myeloma cells; type: cell-based
Experimental: (§1) In Vitro Cell Viability Assay
(§2) The present disclosure provides a method for inhibiting cell viability, as measured by ATP levels. The method for inhibiting cell viability is drawn to contacting various cancer cells with the compounds described herein at various concentrations. The cancer cell lines were maintained in culture conditions at 37° C. in an atmosphere of 5% CO2 in air. The cells growing in an exponential growth phase were harvested and counted for plating. Compounds were incubated in two cancer cell types representing multiple myeloma (MOLP-8) and triple negative breast cancer (DU4475). Cells were plated at an optimized cell numbers per well in 96-well plates and allowed to attach to the plates overnight at approximately 80% confluency.
(§3) After addition of compounds, plates were incubated for 7-day. At the end of incubation period on day 8, media was removed and replaced with a solution of CellTiter-Glo™ reagent (Promega®) according to protocol. Luminescence was read using an EnVision® multi-label plate reader (Perkin-Elmer®), and signal intensity was calculated relative to positive and negative control wells. Cisplatin was included as the positive control. A dose-response calculation was performed in a non-linear regression fit and by using the Hill equation to calculate a concentration-response curve and 50% inhibitory concentration (IC50) values for each compound.
(§4) The average IC50 values of compounds 1-15 in multiple myeloma (MOLP-8) and triple negative breast cancer (DU4475) cells are shown in Table 1.

DU4475 = assay: In vitro cell viability assay (CellTiter-Glo, ATP levels), triple negative breast cancer cells; type: cell-based
Experimental: as §1, §2, §3, §4

[1] = system: HCT116 (colorectal cancer) cells; assay: Resazurin-based cell viability assay using colorectal cancer cells
Experimental: Determination of Potency of Compounds in Cell Viability Assay Using Colorectal Cancer Cells
The blue dye resazurin-based assay was performed to determine cell viability and used according to manufacture protocol (Sigma®). HCT116 (colorectal cancer) cells were seeded in the DMEM medium (10% FBS serum). Approximately 1,500 cells were plated per well in 96 well plates. Cells were allowed to grow at 37° C. for 24 hr in 5% CO2 environment in a humidified incubator. Serially diluted compounds (100 μL) were added to the culture plate after 24 hr. After addition of compounds, plates were incubated for 72 hr. Experiment was terminated at the designated incubation time by replacing the medium with 100 μL of 1 mM of resazurin (Sigma®) prepared in culture medium (DMEM) and were further incubated in culture conditions for 4-6 hours. Fluorescence was recorded using a multimodal plate reader (Biotek Synergy Neo®) at an excitation wavelength of 535 nm and emission wavelength of 590 nm to obtain relative fluorescence units. Data analysis was done by subtracting the background fluorescence (medium blank) value from each reading and then normalizing with the vehicle control (DMSO treated cells) to obtain percent survival/proliferation. IC50 was calculated from percent survival values using GraphPad Prism® (see Table 1).

[2] = Homo sapiens, MOLP-8, 168 h, 7-day incubation, CellTiter-Glo, average values, read-out: MOLP-8 IC50
[3] = Homo sapiens, DU-4475, 168 h, 7-day incubation, CellTiter-Glo, average values, read-out: DU4475 IC50
[4] = Homo sapiens, HCT-116, 72 hr incubation

Row | Compound | IC50 (MOLP-8; [2]) | IC50 (DU4475; [3]) | IC50 [1, 4] | IC50 (MOLP-8; 7-day incubation, CellTiter-Glo, average values, read-out: MOLP-8 IC50) | IC50 (DU4475; 7-day incubation, CellTiter-Glo, average values, read-out: DU4475 IC50) | IC50 ([1]; 72 hr incubation, read-out: HCT 116 IC50) | IC50 (MOLP-8; Homo sapiens, MOLP-8, 168 h, read-out: average IC50 in multiple myeloma (MOLP-8) cells) | IC50 (DU4475; Homo sapiens, DU-4475, 168 h, read-out: average IC50 in triple negative breast cancer (DU4475) cells)
1 | O=C1C=CCCN1C(=O)/C=C/C1CCCCC1 [Compound 2, (E)-1-(3-cyclohexylacryloyl)-5,6-dihydropyridin-2(1H)-one] | 1050 nM | 950 nM | 2600 nM |  |  |  |  | 
2 | CC(=O)N1CCC(/C=C/C(=O)N2CCC=CC2=O)CC1 [Compound 9, (E)-1-(3-(1-acetylpiperidin-4-yl)acryloyl)-5,6-dihydropyridin-2(1H)-one] | 970 nM | 920 nM | 5700 nM |  |  |  |  | 
3 | O=C1C=CCCN1C(=O)C=C1c2ccccc2-c2ccccc21 [Compound 10, 1-(2-(9H-fluoren-9-ylidene)acetyl)-5,6-dihydropyridin-2(1H)-one] | 2120 nM | 950 nM | 1900 nM |  |  |  |  | 
4 | O=C1C=CCCN1S(=O)(=O)/C=C/c1cccnc1 [Compound 11, (E)-1-((2-(pyridin-3-yl)vinyl)sulfonyl)-5,6-dihydropyridin-2(1H)-one] | 500 nM | 580 nM | 1900 nM |  |  |  |  | 
5 | O=C1C=CCCCN1S(=O)(=O)/C=C/c1ccccc1 [Compound 14, (E)-1-(styrylsulfonyl)-1,5,6,7-tetrahydro-2H-azepin-2-one] | 3510 nM | 3040 nM | 7000 nM |  |  |  |  | 
6 | Cc1noc(/C=C/C(=O)N2CCC=CC2=O)n1 [Compound 16, (E)-1-(3-(3-methyl-1,2,4-oxadiazol-5-yl)acryloyl)-5,6-dihydropyridin-2(1H)-one] | 660 nM | 750 nM | 960 nM |  |  |  |  | 
7 | O=C1C=CCCN1C(=O)/C=C/C1CC1 [Compound 18, (E)-1-(3-cyclopropylacryloyl)-5,6-dihydropyridin-2(1H)-one] | 680 nM | 2050 nM | 14200 nM |  |  |  |  | 
8 | CC(C)(C)OC(=O)N1CCC(/C=C/C(=O)N2CCC=CC2=O)CC1 [Compound 19, tert-butyl (E)-4-(3-oxo-3-(6-oxo-3,6-dihydropyridin-1(2H)-yl)prop-1-en-1-yl)piperidine-1-carboxylate] | 410 nM | 820 nM | 1970 nM |  |  |  |  | 
9 | O=C1C=CCCN1C(=O)/C=C/C1CCNCC1 [Compound 20, (E)-1-(3-(piperidin-4-yl)acryloyl)-5,6-dihydropyridin-2(1H)-one] | 690 nM | 1320 nM | 2130 nM |  |  |  |  | 
10 | O=C1C=CCCN1C(=O)/C=C/c1ccc2c(n1)OCCO2 [Compound 21, (E)-1-(3-(2,3-dihydro-[1,4]dioxino[2,3-b]pyridin-6-yl)acryloyl)-5,6-dihydropyridin-2(1H)-one] | 680 nM | 530 nM | 3160 nM |  |  |  |  | 
11 | CC1(/C=C/C(=O)N2CCC=CC2=O)CCCCC1 [Compound 22, (E)-1-(3-(1-methylcyclohexyl)acryloyl)-5,6-dihydropyridin-2(1H)-one] | 2210 nM | 1840 nM | 3850 nM |  |  |  |  | 
12 | O=C1C=CCCN1C(=O)/C=C/c1ccc2c(n1)OCCO2 [Compound 23, (E)-1-(3-(2,3-dihydro-[1,4]dioxino[2,3-b]pyridin-6-yl)acryloyl)-5,6-dihydropyridin-2(1H)-one] |  |  |  | 700 nM | 500 nM | 3160 nM |  | 
13 | O=C1C=CCCN1C(=O)/C=C/c1cnc2c(c1)OCCO2 [Compound 24, (E)-1-(3-(2,3-dihydro-[1,4]dioxino[2,3-b]pyridin-7-yl)acryloyl)-5,6-dihydropyridin-2(1H)-one] | 320 nM | 680 nM | 1900 nM |  |  |  |  | 
14 | COc1cc(/C=C/C(=O)N2CC(O)C=CC2=O)cc2c1OCCO2 (stereo not shown) [Compound 25, 5-hydroxy-1-[(2E)-3-(8-methoxy-2,3-dihydro-1,4-benzodioxin-6-yl)prop-2-enoyl]-5,6-dihydropyridin-2(1H)-one] | 370 nM | 1770 nM | 4610 nM |  |  |  |  | 
15 | CC(C)(C)/C=C/C(=O)N1CCC=CC1=O [Compound 28, (E)-1-(4,4-dimethylpent-2-enoyl)-5,6-dihydropyridin-2(1H)-one] | 490 nM | 1380 nM | 3530 nM |  |  |  |  | 
16 | O=C1C=CCCN1C(=O)C=C(c1ccccc1)c1ccccc1 [Compound 29, 1-(3,3-diphenylacryloyl)-5,6-dihydropyridin-2(1H)-one] | 2700 nM | 1720 nM | 6400 nM |  |  |  |  | 
17 | O=C1C=CCCN1C(=O)/C=C/C1CCN(c2ccc(F)cc2)CC1 [Compound 61, 1-{3-[1-(4-fluorophenyl)piperidin-4-yl]prop-2-enoyl}-5,6-dihydropyridin-2(1H)-one] | 680 nM | 950 nM |  |  |  |  |  | 
18 | COc1cc(/C=C/C(=O)N2CCC=CC2=O)cc(OC)c1OC [Piperlongumine, 1-[(E)-3-(3,4,5-trimethoxyphenyl)prop-2-enoyl]-2,3-dihydropyridin-6-one] |  |  |  |  |  |  | ~1010 nM | ~1240 nM

More lines, main results first:

Row | IC50 (MOLP-8; [2]) | IC50 (DU4475; [3]) | IC50 [1, 4] | IC50 (MOLP-8; 7-day incubation, CellTiter-Glo, average values, read-out: MOLP-8 IC50) | IC50 (DU4475; 7-day incubation, CellTiter-Glo, average values, read-out: DU4475 IC50) | IC50 ([1]; 72 hr incubation, read-out: HCT 116 IC50) | Compound | IC50 (MOLP-8; Homo sapiens, MOLP-8, 168 h, read-out: average IC50 in multiple myeloma (MOLP-8) cells) | IC50 (DU4475; Homo sapiens, DU-4475, 168 h, read-out: average IC50 in triple negative breast cancer (DU4475) cells)
19 | 360 nM | 760 nM | 1700 nM |  |  |  | O=C1C=CCCCN1C(=O)/C=C/c1cnc2ccccc2c1 [Compound 3, (E)-1-(3-(quinolin-3-yl)acryloyl)-1,5,6,7-tetrahydro-2H-azepin-2-one] |  | 
20 | 520 nM | 590 nM | 1900 nM |  |  |  | O=C1C=CCCCN1C(=O)/C=C/c1cccnc1 [Compound 4, (E)-1-(3-(pyridin-3-yl)acryloyl)-1,5,6,7-tetrahydro-2H-azepin-2-one] |  | 
21 | 490 nM | 570 nM | 2000 nM |  |  |  | O=C1C=CCCCN1C(=O)/C=C/c1ccncc1 [Compound 5, (E)-1-(3-(pyridin-4-yl)acryloyl)-1,5,6,7-tetrahydro-2H-azepin-2-one] |  | 
22 | 440 nM | 560 nM | 2400 nM |  |  |  | O=C1C=CCCCN1C(=O)/C=C/c1cnccn1 [Compound 6, (E)-1-(3-(pyrazin-2-yl)acryloyl)-1,5,6,7-tetrahydro-2H-azepin-2-one] |  | 
23 | 570 nM | 490 nM | 1500 nM |  |  |  | O=C1C=CCCN1C(=O)/C=C/c1ncccn1 [Compound 7, (E)-1-(3-(pyrimidin-2-yl)acryloyl)-5,6-dihydropyridin-2(1H)-one] |  | 
24 | 410 nM | 500 nM | 1500 nM |  |  |  | O=C1C=CCCCN1C(=O)/C=C/c1ccccn1 [Compound 8, (E)-1-(3-(pyridin-2-yl)acryloyl)-1,5,6,7-tetrahydro-2H-azepin-2-one] |  | 
25 | 890 nM | 600 nM | 960 nM |  |  |  | O=C1C=CCCCN1C(=O)/C=C/c1cncc2ccccc12 [Compound 12, (E)-1-(3-(isoquinolin-4-yl)acryloyl)-1,5,6,7-tetrahydro-2H-azepin-2-one] |  | 
26 | 510 nM | 670 nM | 1300 nM |  |  |  | O=C1C=CCCCN1C(=O)/C=C/c1ncccn1 [Compound 13, (E)-1-(3-(pyrimidin-2-yl)acryloyl)-1,5,6,7-tetrahydro-2H-azepin-2-one] |  | 
27 | 500 nM | 500 nM | 880 nM |  |  |  | O=C1C=CCCCN1C(=O)/C=C/c1ccc2ccccc2n1 [Compound 15, (E)-1-(3-(quinolin-2-yl)acryloyl)-1,5,6,7-tetrahydro-2H-azepin-2-one] |  | 
28 | 330 nM | 1160 nM | 5930 nM |  |  |  | Cc1noc(/C=C/C(=O)N2CCCC=CC2=O)n1 [Compound 17, (E)-1-(3-(3-methyl-1,2,4-oxadiazol-5-yl)acryloyl)-1,5,6,7-tetrahydro-2H-azepin-2-one] |  | 
29 | 170 nM | 630 nM | 3420 nM |  |  |  | O=C1C=CCCCN1C(=O)/C=C/c1cnc2c(c1)OCCO2 [Compound 26, (E)-1-(3-(2,3-dihydro-[1,4]dioxino[2,3-b]pyridin-7-yl)acryloyl)-6,7-dihydro-1H-azepin-2(5H)-one] |  | 
30 | 760 nM | 950 nM | 1900 nM |  |  |  | O=C1C=CCCN1C(=O)/C=C/c1cccnn1 [Compound 27, (E)-1-(3-(pyridazin-3-yl)acryloyl)-5,6-dihydropyridin-2(1H)-one] |  | 

From US11485725B2, “Derivatives of piperlongumine and uses thereof” (Auransa Inc., priority 2017, dated 2022)
